Experiments:
SW1 tumors = experiment: NSG melanoma model: SW1 tumor growth in immunodeficient mice; type: in vivo
From the text: All animals were housed at the Vincent A. Stabile Research building animal facility at H. Lee Moffitt Cancer Center & Research Institute, which is fully accredited by the Association for Assessment and Accreditation of Laboratory Animal Care International (AAALAC, #434), and are managed in accordance with the Guide for the Care and Use of Laboratory Animals (“The Guide”), the Animal Welfare Regulations Title 9 Code of Federal Regulations Subchapter A, “Animal Welfare”, Parts 1-3 (AWR), the Public Health Service Policy on Humane Care and Use of Laboratory Animals (PHS Policy), and by the USF Institutional Animal Care and Use Committee's Principles and Procedures of Animal Care and Use (IACUC Principles). The experiments and protocols detailed in this study received institutional approval by the Moffitt IACUC (RIS00001625). Four-to-six-week-old female C3H/HeN and male C57BL6 mice were purchased from Charles Rivers Laboratories for the indicated experiments. Four-to-six-week-old male NSG mice from the Lau laboratory breeding colony were used for the indicated experiments. Power calculations were used to determine mouse cohort sizes to detect significant changes in tumor sizes. […] Mouse tumor volumes were measured using length, width and depth divided by 2. […]

dendritic cells = experiment: TLR profiles of bone marrow-derived dendritic cells (RT-qPCR); type: cell-based, Balb/C mice; conditions: 250 uM L-fucose, 96 hours, then LPS 24 hours
Description: Bone marrow was harvested from either 4-week-old (young) or 6-month-old (old) Balb/C mice. Cells were isolated and cultured in DC maturation cocktail ([…], […], ±250 uM L-fucose) for 96 hours. At 96 hours the cells were treated with 10 ug/ml LPS for 24 hours after which the cells were harvested, and the RNA was extracted. RT-qPCR was performed. Data represents fold change of indicated genes normalized to values of young mice. N=3 mice per age group.

[1] = test system: fucosylated HLA-DRB1 in WM793 cells; experiment: Lectin-mediated proximity ligation assay (L-PLA) of fucosylated HLA-DRB1; type: cell-based, human; conditions: vs. DMSO
From the text: FIGS. 22A-221 show Schematic of L-PLA staining and verification of fucosylated HLA-DRB1 staining, which is weakly associated with tumor peripheral CD4+T cells; and the effects of L-fucose on tumor PD-L1 expression (a) Schematic of lectin-mediated proximity ligation analysis (L-PLA) using fucosylated HLA-DRB1 (fuco-HLA-DRB1) as an example. We stained for (i) HLA-DRB1 using […]-HLA-DRB1 followed by (+) oligo-conjugated PLA secondary and (ii) fucosylated glycan using biotinylated (“B”) AAL lectin followed by D-biotin followed by (−) oligo-conjugated PLA secondary. Ligated PLA oligos were subjected to rolling circle amplification PCR (RCA PCR), giving rise to fluorescent punctae. […] Single melanoma marker, AAL-FITC, and HLA-DRB1 channels are shown in white for clearer visualization. […] (d) FFPE melanoma tissues were subjected to L-PLA HLA-DRB1 staining ±500 mM L-fucose wash and subsequent staining with melanoma marker (MART1+SI10 cocktail), and DAPI. Single melanoma marker and fuco-HLA-DRB1 channels are shown in white for clear visualization. Total loss of fuco-HLA-DRB1 signal in the +L-fucose wash tissue confirms the fucose-specificity of L-PLA for fuco-HLA-DRB1. […]
Laboratories (Burlingame, CA)), on coverslips overnight in 4° C. […] Microscopy images were acquired using a Keyence BZ-X710, and images were process and analyzed using FIJI (NIH).

SMILES | SW1 tumor growth (SW1 tumors) | TLR profiles of dendritic cells (dendritic cells) | L-PLA staining of endogenous fucosylated HLA-DRB1 [1]
C[C@H](O)[C@@H](O)[C@@H](O)[C@H](O)C=O [L-fucose] | did not reduce | alters | 
CC(=O)OC1O[C@@H](C)[C@@H](OC(C)=O)[C@@H](OC(C)=O)[C@@H]1F (stereo partly drawn) [FUTi, 2F-peracteyl-fucose, reference compound] |  |  | lost
